Assay results as given in PubChem BioAssay (NCI).
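Results reflect a 48-hour exposure of cells in 96-well plates to compound at five concentrations. GI50: concentration for 50% inhibition of growth. The concentration for full growth arrest is given as TGI.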

Columns and labels:
Experiment in all cases: growth of human tumour cells (NCI), 48 h
[1] = system: HCC-2998 colon
[2] = system: COLO 205 colon
[3] = system: SN12C renal
[4] = system: HL-60(TB) leukemia
[5] = system: SR leukemia
[6] = system: OVCAR-4 ovarian
[7] = system: HOP-92 NSCLC
[8] = system: SK-OV-3 ovarian
[9] = system: HS 578T breast
[10] = system: U251 CNS

Compound | TGI [1] [µM] | TGI [2] [µM] | TGI [3] [µM] | TGI [4] [µM] | TGI [5] [µM] | TGI [6] [µM] | TGI [7] [µM] | TGI [8] [µM] | TGI [9] [µM] | TGI [10] [µM] | GI50 [1] [µM] | GI50 [2] [µM] | GI50 [3] [µM] | GI50 [4] [µM] | GI50 [5] [µM] | GI50 [6] [µM] | GI50 [7] [µM] | GI50 [8] [µM] | GI50 [9] [µM] | GI50 [10] [µM]
NC(=O)/C=C/NC(=O)/C=N\O | > 100 | > 100 | > 100 | > 100 | > 100 | > 100 | > 100 | > 100 | > 100 | > 100 |  |  |  |  |  |  |  |  |  | 
C=C(C)[C@@H]1CC[C@]2(COC3CCCCO3)CC[C@]3(C)[C@H](CC[C@@H]4[C@@]5(C)C=C(C=O)C(=O)C(C)(C)[C@@H]5CC[C@]43C)[C@@H]12 (stereo partly drawn) | 4.2 | 3.48 | 5.57 | 5.37 | 6.78 | 3.89 | 2.89 | 3.32 | 3.77 | 2.71 | 2.04 | 1.62 | 2.06 | 1.56 | 1.52 | 2.01 | 1.49 | 1.84 | 1.39 | 1.18
CN(C[C@@H]1COCCO1)S(=O)(=O)Nc1ccc2ccc3ncc(-c4cnn(C)c4)cc3c(=O)c2c1 | > 100 | > 100 | > 100 | > 100 | > 100 | > 100 | > 30.3 | > 100 | 6.16 | > 100 | 59.6 | 19.3 | 3.53 | 6.77 | 3.05 | 5.65 | 2.25 | 3.04 | 1.35 | 2.34
CCOC(=O)c1cc2c(n1Cc1ccccc1)-c1oncc1CC2 | 37.1 | 14.2 | 55.8 | 6.59 | 15.5 | > 100 | 42.7 | 93.1 | 17.5 | 34 | 7.87 | 3.93 | 10 | 2.4 | 2.56 | 7.69 | 5.24 | 7.07 | 2.75 | 4.73
COc1ccc(-c2csc(-c3cc(Cl)cc(Cl)c3Cl)n2)cc1 | > 100 | > 100 | > 100 | > 100 | 32.4 | > 100 | > 100 | > 100 | > 100 | > 100 | 44.6 | > 100 | > 100 | 78.3 | 7.05 | 53.8 | 27.6 | 96.8 | 46.8 | 60.2
O=C1CCc2c(sc3[nH]c(=S)n(Cc4ccccc4)c(=O)c23)C1 | 14 | 4.99 | > 100 | 20.2 | 8.22 | > 100 | 5.33 | 7.05 | > 100 | > 100 | 2.88 | 2.36 | 3.25 | 1.95 | 2.3 | 3.99 | 1.92 | 2.68 | 3.09 | 2.14
N#Cc1ccc(C(c2ccc(C#N)cc2)n2cncn2)cc1 | > 5000 | > 5000 | > 5000 | > 5000 | > 5000 | > 5000 |  | > 5000 | > 5000 | > 5000 | > 5000 | > 5000 | > 5000 | > 5000 | > 5000 | > 5000 |  | > 5000 | 1540 | 2850
CCOC(=O)Nc1ccc(-c2nc(-c3cccc(OC)c3)c(-c3ccnc(Br)c3)[nH]2)cc1 | 6.23 | > 100 | > 100 | 7.41 | > 100 |  | 7.69 | > 100 | 6.15 | > 100 | 2.25 | 3.23 | 2.77 | 2.34 | 2.88 |  | 2.36 | 3.9 | 1.68 | 2.44
CNC1C(O)C(OC2C(N)CC(N)C(OC3OC(C(C)O)C(O)C(O)C3N)C2O)OCC1(C)O (stereo not drawn) | > 100 | > 100 | > 100 | > 100 | > 100 | > 100 |  | > 100 | > 100 | > 100 |  |  |  |  |  |  |  |  |  | 
CC/C(C)=C1\OC(=O)C(C)C(O)C(Cc2cccnc2)NC(=O)C(NC(=O)c2ncccc2O)C(C)OC1=O (stereo not drawn) | > 100 | > 100 | > 100 | > 100 | > 100 | > 100 |  | > 100 | > 100 | > 100 |  |  |  |  |  |  |  |  |  | 
O=C(Oc1ccccc1Cl)c1ccccc1Nc1ccnc(C(F)(F)F)c1 | 5.26 |  | 2.57 | > 100 | > 100 |  | 13.4 | 46.4 | 74.1 | 0.808 | 2.22 |  | 0.289 | 0.472 | 0.0282 |  | 0.271 | 8.02 | 20 | 0.271
Cc1cc(C)nc(SC2=C(Nc3cccc(Cl)c3C)C(=O)N(Cc3ccccc3)C2=O)n1 | > 160 | > 160 |  | > 160 | > 160 | > 160 | > 160 | > 160 | > 160 | > 160 | > 160 | > 160 |  | > 160 | > 160 | > 160 | > 160 | > 160 | > 160 | > 160
O=[N+]([O-])c1ccc2ncccc2c1Cl | 14.2 |  | > 100 | 7.78 | 4.12 |  | 24.6 | > 100 | > 100 | 11.8 | 3.67 |  | 4.3 | 1.92 | 0.308 |  | 6.57 | 3.13 | 7.69 | 3.38
CSc1ccc(/C=C/c2ccnc3ccccc23)cc1 | 27.4 | 27.5 | 28.8 | 24.4 | 32.9 |  | 30.2 | 33.3 | 43.4 | 25.4 |  |  |  |  |  |  |  |  |  | 
